This is an account of results in patent publication US10239871B2, “Compounds and methods for regulating integrins” (ADHAERE PHARMACEUTICALS, INC., priority 2012, dated 2019).

The target of one data set is T1, CD11b/CD18 (Mus musculus, UniProt P05555).
T1 construct: that have constitutive CD11b/CD18 surface expression were used; host or cells: RAW 264.7 murine macrophage cell line
Put plainly: Cell adhesion assay, RAW 264.7 cells on immobilized fibrinogen. It counts as cell-based, murine. The following applies: vs basal 1 mM Ca2+ and Mg2+. The protocol:
K562 cells stably transfected with plasmid encoding wild-type integrin CD11b/CD18 (K562 WT cells) have been described previously and were maintained in Iscove's Modified Dulbecco's Medium (IMDM) supplemented with 10% FBS and G418 (0.5 mg/ml). The murine macrophage cell line (RAW 264.7 cells) was obtained from ATCC and the cells were maintained in DMEM supplemented with 10% heat-inactivated FBS according to the manufacturer's instructions. The primary rat peritoneal macrophages were isolated from the wild type Fisher 344 rats that had been previously injected with 5 mL of Brewer's thioglycolate broth (Sigma-Aldrich). Macrophage purity was directly analyzed by single channel flow cytometry using rat macrophage specific monoclonal antibodies ED1 (AbD Serotec, Raleigh, N.C.), WT.5 (BD Biosciences) and His36 (BD Biosciences). Purity was typically >85%. Macrophages were used in assays immediately upon isolation.
Cell adhesion assays using K562 WT, murine RAW 264.7 cells and the primary rat macrophages were performed as previously described and used immobilized fibrinogen as the ligand of CD11b/CD18 [49]. […] The remaining adherent cells were fixed using 4% formaldehyde and quantified by imaging microscopy as previously described (22, 63). […]

For data set [1], the system named is MAPK signaling (pERK, pJNK) in K562 WT cells. The experiment in a line: Western blotting of pERK and pJNK in K562 WT cells. It counts as cell-based, human. Particulars: absence of ligand fibrinogen. As to the method:
K562 WT cells were incubated with LA1, LA2, LA15 (15 μM), or fibrinogen (200 μg) in serum-free medium for 1 hour at 37° C. Cell lysates were resolved on 4-12% NuPAGE Bis-Tris SDS-PAGE gels using MES running buffer and transferred to a polyvinylidene difluoride (PVDF) membrane (ThermoScientific) using established protocols. Membranes were incubated with a 1:1,000 dilution of the anti-phospho-protein antibodies (anti phospho-p44/42 MAPK (pERK1/2) antibody (Thr202/Tyr204, Cell Signaling) or anti-phospho-SAPK/JNK (pJNK) antibody (Thr183/Tyr185, Cell Signaling #81E11)), or with an antibody against either total ERK1/2 (p44/42 MARK (Erk1/2), Cell Signaling #137F5) or total JNK (SAPK/JNK, Cell Signaling #56G8) and developed according to the manufacturer's instructions (ThermoScientific). Proteins were quantified by densitometry using ImageJ software. […]
Second, an effect of integrin ligation, macro clustering and redistribution in the plasma membrane is the triggering of outside-in intracellular signaling in cells via various MAPKs. […] In FIGS. 6A-6B, immunoblot results from two independent experiments were quantified using ImageJ software and ratio of phosphorylated protein to total protein was determined. Histograms showing this quantitation for each set are also shown. […] In FIGS. 6C-6D, immunoblot results from two independent experiments were quantified and are also shown, as in 6A and 6B.

The next data set has as its system SD rats. The experiment in a line: Subacute toxicity assessment in rats. It counts as in vivo, rat. As to the method: LA1 is non-toxic in vivo. A subacute toxicity assessment of LA1 in rats was performed.
LA1 had no effect on the daily food intake or growth.
Next, a subacute toxicity assessment was performed of LA1 in rats in the Comparative Pathology core. […] LA1 had no effect on the daily food intake or growth.

Data set [2] relates to T cells from the draining lymph nodes. Put plainly: IFN production by antigen-reactive T cells (MOG-peptide). The format is cell-based, mice. The following applies: antigen dose-dependent. The protocol:
Additionally, LA1 decreased IFN-[…] production by T-cells in an antigen dose-dependent fashion (MOG-peptide, data not shown) when antigen-reactive T cells from the draining lymph nodes of mice were assessed.

T1 sequence (P05555 17-1153): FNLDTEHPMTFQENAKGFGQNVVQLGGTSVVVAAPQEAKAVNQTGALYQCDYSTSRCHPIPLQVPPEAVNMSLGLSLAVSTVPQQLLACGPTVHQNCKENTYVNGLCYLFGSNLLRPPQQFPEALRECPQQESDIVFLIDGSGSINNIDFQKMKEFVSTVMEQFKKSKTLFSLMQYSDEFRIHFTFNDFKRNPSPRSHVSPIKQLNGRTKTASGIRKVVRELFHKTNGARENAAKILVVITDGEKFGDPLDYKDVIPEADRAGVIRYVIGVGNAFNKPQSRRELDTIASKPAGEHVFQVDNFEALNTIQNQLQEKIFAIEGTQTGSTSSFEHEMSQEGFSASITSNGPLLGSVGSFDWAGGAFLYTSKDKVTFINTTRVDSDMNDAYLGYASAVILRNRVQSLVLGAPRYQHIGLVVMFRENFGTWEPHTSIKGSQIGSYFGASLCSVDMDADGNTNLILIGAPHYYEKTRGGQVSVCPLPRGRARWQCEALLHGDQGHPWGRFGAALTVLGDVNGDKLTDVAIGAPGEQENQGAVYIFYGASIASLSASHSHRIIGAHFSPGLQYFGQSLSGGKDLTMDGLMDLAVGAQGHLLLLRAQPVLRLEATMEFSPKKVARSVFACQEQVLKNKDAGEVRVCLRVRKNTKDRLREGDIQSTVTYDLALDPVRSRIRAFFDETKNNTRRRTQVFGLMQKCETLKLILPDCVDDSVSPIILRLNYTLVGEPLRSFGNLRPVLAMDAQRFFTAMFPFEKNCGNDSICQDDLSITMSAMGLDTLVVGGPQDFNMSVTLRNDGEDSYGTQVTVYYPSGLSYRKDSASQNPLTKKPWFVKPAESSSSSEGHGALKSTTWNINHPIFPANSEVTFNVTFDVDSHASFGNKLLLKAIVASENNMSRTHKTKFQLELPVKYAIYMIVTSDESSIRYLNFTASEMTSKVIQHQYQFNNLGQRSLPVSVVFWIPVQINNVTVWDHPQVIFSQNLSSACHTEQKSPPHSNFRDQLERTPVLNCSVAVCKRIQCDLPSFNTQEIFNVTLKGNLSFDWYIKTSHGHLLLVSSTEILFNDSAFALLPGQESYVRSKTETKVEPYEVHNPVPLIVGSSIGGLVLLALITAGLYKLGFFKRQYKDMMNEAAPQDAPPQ
T1 sequence (P11835 24-771 partner): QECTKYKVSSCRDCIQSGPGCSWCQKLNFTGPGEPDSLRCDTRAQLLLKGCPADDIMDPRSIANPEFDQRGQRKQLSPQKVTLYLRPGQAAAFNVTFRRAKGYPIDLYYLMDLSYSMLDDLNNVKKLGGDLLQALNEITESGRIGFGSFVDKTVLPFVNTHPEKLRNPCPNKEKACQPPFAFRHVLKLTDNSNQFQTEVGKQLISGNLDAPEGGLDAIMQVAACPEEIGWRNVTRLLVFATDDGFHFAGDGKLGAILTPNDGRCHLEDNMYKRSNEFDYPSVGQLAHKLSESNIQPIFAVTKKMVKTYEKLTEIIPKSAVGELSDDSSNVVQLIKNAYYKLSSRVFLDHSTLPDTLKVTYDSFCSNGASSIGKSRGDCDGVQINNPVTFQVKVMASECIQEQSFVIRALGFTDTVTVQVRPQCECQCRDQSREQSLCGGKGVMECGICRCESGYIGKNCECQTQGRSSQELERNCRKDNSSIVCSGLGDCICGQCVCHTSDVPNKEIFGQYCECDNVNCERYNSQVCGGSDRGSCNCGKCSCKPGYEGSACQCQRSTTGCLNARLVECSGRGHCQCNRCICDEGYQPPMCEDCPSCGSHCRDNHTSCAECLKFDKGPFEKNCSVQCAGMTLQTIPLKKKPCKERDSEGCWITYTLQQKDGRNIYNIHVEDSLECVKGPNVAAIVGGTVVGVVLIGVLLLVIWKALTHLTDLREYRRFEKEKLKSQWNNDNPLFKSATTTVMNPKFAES

In the case of `O=C(O)c1ccc(-c2ccc(/C=C3\SC(=S)N(Cc4ccccc4)C3=O)o2)cc1` [LA1], on CD11b/CD18, the “adhesion of RAW 264.7 cells to immobilized fibrinogen” value is “significantly and similarly increased the level of cell adhesion”. The “phosphorylated ERK (pERK) and phosphorylated JNK (pJNK)” value in data set [1] was “did not induce any significant pERK or pJNK”. Moreover, in the data set with SD rats (IP ~3 mg/kg/d for 21 d), the Haematological constants result was “on par with those of controls”; the “biochemical measurements in serum and liver (enzyme levels, serum constituents)” value is reported as “no appreciable changes”; the “daily food intake or growth” value was “no effect”. Besides, the “overt toxicity or mortality” value with SD rats (IP ~3 mg/kg/d for 21 d, SD rats of both sexes) is given as “failed to induce any overt toxicity or mortality”. For the same molecule, the “relative organ weights of vital organs and their histoarchitecture” value with SD rats (autopsy, lung, heart, spleen, liver, kidney) is “no significant alterations”. The “IFN-[…] production by T-cells” value in data set [2] is on record as “decreased”.
